Target: tyrosinase
Experiment: absorbance at […] nm, L-DOPA oxidation
Format: biochemical
Settings: L-DOPA […] stock, […] phosphate, pH […] °C, […] min preincubation

- Control (Quercetin) / IC50 (μg/mL)s: 22.15 ± 0.12 µg/mL
SMILES: O=c1c(O)c(-c2ccc(O)c(O)c2)oc2cc(O)cc(O)c12 [Quercetin]

From article PMC11063393 (Heliyon, 2024)
